Data: publication PMC7722354, “7-Substituted 2-Nitro-5,6-dihydroimidazo[2,1-b][1,3]oxazines: Novel Antitubercular Agents Lead to a New Preclinical Candidate for Visceral Leishmaniasis” (Journal of Medicinal Chemistry, 2017)
Converted amounts (≈) assume the structure as drawn.

Key:
M. tb, strain H37Rv [1] = assay: MABA minimum inhibitory concentration assay (aerobic); type: cell-based, Mycobacterium tuberculosis; details: Mycobacterium tuberculosis, H37RV
Leishmania donovani = assay: L. don amastigote mouse macrophage-based luciferase assay (CDRI); type: cell-based; details: in mouse macrophages, single test (CDRI)
[2] = tested on: human lung fibroblasts (MRC-5 cells); assay: cytotoxicity toward MRC-5 cells (LMPH); type: cell-based; details: MRC5
M. tb, strain H37Rv [3] = assay: LORA minimum inhibitory concentration assay (hypoxic); type: cell-based; details: Mycobacterium tuberculosis
Leishmania infantum = assay: L. inf growth inhibition in mouse macrophages (LMPH); type: cell-based; details: Macrophage, mean of at least two determinations
Trypanosoma cruzi = assay: T. cruzi growth inhibition on MRC-5 cells (LMPH); type: cell-based; details: MRC5

Row | Structure (SMILES) | MIC (M. tb, strain H37Rv [1]; aerobic, read-out: MIC MABA) [µM] | IC50 (Leishmania donovani) [nM] | IC50 [2] [nM] | MIC (M. tb, strain H37Rv [3]) [µM] | IC50 (Leishmania infantum) [nM] | IC50 (Trypanosoma cruzi) [nM] | MIC (M. tb, strain H37Rv [1]; read-out: MIC MABA, aerobic) [µM]
1 | CC1(COc2ccc(-c3ccc(OC(F)(F)F)cc3)cn2)CCn2cc([N+](=O)[O-])nc2O1 (stereo not drawn) [compound 65] | 0.13 (≈ 0.0585 µg/mL) | 260 | > 64000 | 5.3 (≈ 2.39 µg/mL) | 3800 | 1000 | –
2 | CC1(COc2ccc(-c3ccc(F)nc3F)nc2)CCn2cc([N+](=O)[O-])nc2O1 (stereo not drawn) [compound 115] | 0.94 (≈ 0.379 µg/mL) | 110 | > 64000 | 18 (≈ 7.26 µg/mL) | 280 | 380 | –
3 | CC1(CN2CCC(Oc3ccc(F)cc3)CC2)CCn2cc([N+](=O)[O-])nc2O1 (stereo not drawn) [compound 154] | 0.23 (≈ 0.0898 µg/mL) | 220 | > 64000 | 48 (≈ 18.7 µg/mL) | 320 | 590 | –
4 | CC1(COc2ccc(-c3ccc(OC(F)(F)F)cc3)nc2)CCn2cc([N+](=O)[O-])nc2O1 (stereo not drawn) [compound 96] | 0.05 (≈ 0.0225 µg/mL) | 650 | > 64000 | 0.88 (≈ 0.396 µg/mL) | 4000 | 250 | –
5 | CC1(CN2CCN(C(=O)c3ccc(F)cc3)CC2)CCn2cc([N+](=O)[O-])nc2O1 (stereo not drawn) [compound 159] | 93 (≈ 37.5 µg/mL) | 2800 | > 64000 | > 128 | 6500 | 2800 | –
6 | CC1(COCc2ccc(-c3ccc(F)cc3)cc2)CCn2cc([N+](=O)[O-])nc2O1 (stereo not drawn) [compound 27] | 0.085 (≈ 0.0338 µg/mL) | 220 | > 64000 | 0.61 (≈ 0.242 µg/mL) | 1800 | 840 | –
7 | O=[N+]([O-])c1cn2c(n1)OC(COc1ccc(-c3ccc(F)cn3)cn1)CC2 (stereo not drawn) [compound 105] | 0.15 (≈ 0.0557 µg/mL) | 60 | > 64000 | 11 (≈ 4.08 µg/mL) | 50000 | 340 | –
8 | O=[N+]([O-])c1cn2c(n1)OC(COc1ncc(-c3ccc(F)nc3)cn1)CC2 (stereo not drawn) [compound 132] | 0.24 (≈ 0.0894 µg/mL) | 530 | > 64000 | 21 (≈ 7.82 µg/mL) | > 64000 | 3300 | –
9 | CC1(COc2ccc(-c3ccc(F)cn3)cn2)CCn2cc([N+](=O)[O-])nc2O1 (stereo not drawn) [compound 106] | 0.4 (≈ 0.154 µg/mL) | 150 | > 64000 | 9.5 (≈ 3.66 µg/mL) | 340 | 250 | –
10 | O=[N+]([O-])c1cn2c(n1)OC(COc1cccc(-c3ccc(F)cc3F)n1)CC2 (stereo not drawn) [compound 102] | – | 250 | > 64000 | > 128 | 4000 | 230 | > 128
11 | CC1(COCc2ccc(OC(F)(F)F)cc2)CCn2cc([N+](=O)[O-])nc2O1 (stereo not drawn) [compound 21] | 0.55 (≈ 0.213 µg/mL) | 310 | > 64000 | 3.3 (≈ 1.28 µg/mL) | 300 | 750 | –
12 | CC1(COc2ccc(-c3ccc(F)cc3F)nc2)CCn2cc([N+](=O)[O-])nc2O1 (stereo not drawn) [compound 92] | 0.4 (≈ 0.161 µg/mL) | 310 | > 64000 | 4.9 (≈ 1.97 µg/mL) | 170 | 270 | –
